Test results published in patent US11274118B2 (priority 2012, dated 2022).
In brackets after ≈: the same amount, converted by molar mass.

Key:
[1] = physchem; settings: kinetic from dmso stock
[2] = physchem; settings: buffer, pH 7
[3] = system: Primary cortical cells; experiment: Reduction of neuronal cell death after a glutamate challenge (MTT / LDH release); format: cell-based; settings: for inhibition at 5 µM: 24 h, read-out: reduction in cell death at a 5 μM dose; for dose at maximum efficacy: glutamate challenge, primary cortical cells; for Emax: read-out: maximum efficacy, reduction in cell death
[4] = rat, in vivo, iv, 4 mg/kg
[5] = system: cerebral edema in rats following bilateral cortical contusion; settings: rat, in vivo, iv, 4 mg/kg

CO/N=C(\C)[C@H]1CC[C@H]2[C@@H]3CCC4=CC(=O)CC[C@]4(C)[C@H]3CC[C@]12C [Compound 4, (8S,9S,10R,13S,14S,17S)-17-((E)-1-(Methoxyimino)ethyl)-10,13-dimethyl-6,7,8,9,10,11,12,13,14,15,16,17-dodecahydro-1H-cyclopenta[a]phenanthren-3(2H)-one]
solubility at 90 min ([1]; pH 4, aqueous buffer): < 25 µM | solubility at 90 min ([1]; pH 7, aqueous buffer): < 25 µM | half-life [2]: > 240 h

C/C(=N\OC(=O)C[N+](C)(C)C)[C@H]1CC[C@H]2[C@@H]3CCC4=CC(=O)CC[C@]4(C)[C@H]3CC[C@]12C.[I-] [Compound 11, (8S,9S,10R,13S,14S,17S)-17-((E)-1-(2-(triimethylamino)acetoxyimino)ethyl)-10,13-dimethyl-6,7,8,9,10,11,12,13,14,15,16,17-dodecahydro-1H-cyclopenta[a]phenanthren-3(2H)-one Iodide]
solubility at 90 min ([1]; pH 4, aqueous buffer): > 540 µM | solubility at 90 min ([1]; pH 7, aqueous buffer): 45 µM

C/C(=N\OC(=O)C1CC[N+](C)(C)CC1)[C@H]1CC[C@H]2[C@@H]3CCC4=CC(=O)CC[C@]4(C)[C@H]3CC[C@]12C.[I-] [Compound 20, (8S,9S,10R,13S,14S,17S)-10,13-Dimethyl-17-((E)-1-(1,1-dimethylpiperidine-4-carbonyloxyimino)ethyl)-6,7,8,9,10,11,12,13,14,15,16,17-dodecahydro-1H-cyclopenta[a]phenanthren-3(2H)-one iodide]
solubility at 90 min ([1]; pH 4, aqueous buffer): > 500 µM | solubility at 90 min ([1]; pH 7, aqueous buffer): > 500 µM | inhibition at 5 µM [3]: 0% | dose at maximum efficacy [3]: 5 µM | Emax [3]: 0%

CC(=O)[C@H]1CC[C@H]2[C@@H]3CCC4=C/C(=N/O)CC[C@]4(C)[C@H]3CC[C@]12C [Compound 2, 1-((8S,9S,10R,13S,14S,17S,E)-3-(Hydroxyimino)-10,13-dimethyl-2,3,6,7,8,9,10,11,12,13,14,15,16,17-tetradecahydro-1H-cyclopenta[a]phenanthren-17-yl)ethanone]
concentrations of circulating drug [4]: micromolar concentrations | solubility at 90 min ([1]; pH 4, aqueous buffer): < 45 µM | solubility at 90 min ([1]; pH 7, aqueous buffer): < 45 µM | half-life [2]: > 240 h | inhibition at 5 µM [3]: 21% | dose at maximum efficacy [3]: 5 µM | Emax [3]: 21% | reduction of brain edema [5]: 60%

C/C(=N\OC(=O)c1cccnc1)[C@H]1CC[C@H]2[C@@H]3CCC4=CC(=O)CC[C@]4(C)[C@H]3CC[C@]12C [Compound 14]
solubility at 90 min ([1]; pH 4, aqueous buffer): < 35 µM | solubility at 90 min ([1]; pH 7, aqueous buffer): < 35 µM | inhibition at 5 µM [3]: 20% | dose at maximum efficacy [3]: 5 µM | Emax [3]: 20%

CC(=O)O/N=C(\C)[C@H]1CC[C@H]2[C@@H]3CCC4=CC(=O)CC[C@]4(C)[C@H]3CC[C@]12C [Compound 6, (8 S,9S,10R,13S,14S,17S)-17-((E)-1-(acetoxyimino)ethyl)-10,13-dimethyl-6,7,8,9,10,11,12,13,14,15,16,17-dodecahydro-1H-cyclopenta[a]phenanthren-3(2H)-one]
solubility at 90 min ([1]; pH 4, aqueous buffer): 180 µM (≈ 66.9 µg/mL) | solubility at 90 min ([1]; pH 7, aqueous buffer): 100 µM (≈ 37.2 µg/mL)

C/C(=N\OC(=O)CN1CCOCC1)[C@H]1CC[C@H]2[C@@H]3CCC4=CC(=O)CC[C@]4(C)[C@H]3CC[C@]12C [Compound 12, (8S,9S,10R,13S,14S,17S)-10,13-Dimethyl-17-((E)-1-(2-morpholinoacetoxyimino)ethyl)-6,7,8,9,10,11,12,13,14,15,16,17-dodecahydro-1H-cyclopenta[a]phenanthren-3(2H)-one]
solubility at 90 min ([1]; pH 4, aqueous buffer): 215 µM (≈ 98.2 µg/mL) | solubility at 90 min ([1]; pH 7, aqueous buffer): 215 µM (≈ 98.2 µg/mL)

C/C(=N\OC(=O)c1ccc(CN2CCN(C)CC2)cc1)[C@H]1CC[C@H]2[C@@H]3CCC4=CC(=O)CC[C@]4(C)[C@H]3CC[C@]12C [Compound 17, (8S,9S,10R,13S,14S,17S)-10,13-dimethyl-17-((E)-1-(4-((4-methylpiperazin-1-yl)methyl)benzoyloxyimino)ethyl)-6,7,8,9,10,11,12,13,14,15,16,17-dodecahydro-1H-cyclopenta[a]phenanthren-3(2H)-one]
solubility at 90 min ([1]; pH 4, aqueous buffer): < 30 µM | solubility at 90 min ([1]; pH 7, aqueous buffer): < 30 µM

C/C(=N\OC(=O)[C@@H]1CCCNC1)[C@H]1CC[C@H]2[C@@H]3CCC4=CC(=O)CC[C@]4(C)[C@H]3CC[C@]12C.Cl [Compound 21, (8S,9S,10R,13S,14S,17S)-10,13-dimethyl-17-((E)-1-((R)-piperidine-3-carbonyloxyimino)ethyl)-6,7,8,9,10,11,12,13,14,15,16,17-dodecahydro-1H-cyclopenta[a]phenanthren-3 (2H)-one hydrochloride]
solubility at 90 min ([1]; pH 4, aqueous buffer): > 500 µM | solubility at 90 min ([1]; pH 7, aqueous buffer): 428 µM

C/C(=N\OC(=O)C1CCNCC1)[C@H]1CC[C@H]2[C@@H]3CCC4=CC(=O)CC[C@]4(C)[C@H]3CC[C@]12C.Cl [Compound 18, (8S,9S,10R,13S,14S,17S)-10,13-Dimethyl-17-((E)-1-(piperidine-4-carbonyloxyimino)ethyl)-6,7,8,9,10,11,12,13,14,15,16,17-dodecahydro-1H-cyclopenta[a]phenanthren-3(2H)-one hydrochloride]
solubility at 90 min ([1]; pH 4, aqueous buffer): 247 µM | solubility at 90 min ([1]; pH 7, aqueous buffer): 247 µM | inhibition at 5 µM [3]: 4% | dose at maximum efficacy [3]: 10 µM | Emax [3]: 24%

C/C(=N\OCCN1CCOCC1)[C@H]1CC[C@H]2[C@@H]3CCC4=CC(=O)CC[C@]4(C)[C@H]3CC[C@]12C [Compound 5, (8S,9S,10R,13S,14S,17S)-10,13-Dimethyl-17-((E)-1-(2-morpholinoethoxyimino)ethyl)-6,7,8,9,10,11,12,13,14,15,16,17-dodecahydro-1H-cyclopenta[a]phenanthren-3 (2H)-one]
solubility at 90 min ([1]; pH 4, aqueous buffer): > 450 µM | solubility at 90 min ([1]; pH 7, aqueous buffer): 108 µM (≈ 47.8 µg/mL) | half-life [2]: > 240 h | inhibition at 5 µM [3]: 26% | dose at maximum efficacy [3]: 5 µM | Emax [3]: 26%

C/C(=N\OC(=O)[C@@H]1CCC[N+]1(C)C)[C@H]1CC[C@H]2[C@@H]3CCC4=CC(=O)CC[C@]4(C)[C@H]3CC[C@]12C.[I-] [Compound 9, (8S,9S,10R,13S,14S,17S)-10,13-Dimethyl-17-((E)-1-((S)-1,1-Dimethylpyrrolidine-2-carbonyloxyimino)ethyl)-6,7,8,9,10,11,12,13,14,15,16,17-dodecahydro-1H-cyclopenta[a]phenanthren-3(2H)-one iodide]
solubility at 90 min ([1]; pH 4, aqueous buffer): 345 µM | solubility at 90 min ([1]; pH 7, aqueous buffer): 51 µM | half-life [2]: 0.833 h

C/C(=N\OC(=O)CN1CCN(C)CC1)[C@H]1CC[C@H]2[C@@H]3CCC4=CC(=O)CC[C@]4(C)[C@H]3CC[C@]12C [Compound 13, (8S,9S,10R,13S,14S,17S)-10,13-Dimethyl-17-((E)-1-(2-(4-methylpiperazin-1-yl)acetoxyimino)ethyl)-6,7,8,9,10,11,12,13,14,15,16,17-dodecahydro-1H-cyclopenta[a]phenanthren-3 (2H)-one]
solubility at 90 min ([1]; pH 4, aqueous buffer): 153 µM (≈ 71.9 µg/mL) | solubility at 90 min ([1]; pH 7, aqueous buffer): 145 µM (≈ 68.1 µg/mL) | half-life [2]: ~72 h

C/C(=N\OC(=O)c1ccc[n+](C)c1)[C@H]1CC[C@H]2[C@@H]3CCC4=CC(=O)CC[C@]4(C)[C@H]3CC[C@]12C.[I-] [Compound 15, 3-(((E)-1-((8S,9S,10R,13S,14S,17S)-10,13-Dimethyl-3-oxo-2,3,6,7,8,9,10,11,12,13,14,15,16,17-tetradecahydro-1H-cyclopenta[a]phenanthren-17-yl)ethylideneaminooxy)carbonyl)-1-methylpyridinium iodide]
solubility at 90 min ([1]; pH 4, aqueous buffer): 349 µM | solubility at 90 min ([1]; pH 7, aqueous buffer): 212 µM | inhibition at 5 µM [3]: 0% | dose at maximum efficacy [3]: 1 µM | Emax [3]: 14%

C/C(=N\OC(=O)[C@@H]1CCCN1)[C@H]1CC[C@H]2[C@@H]3CCC4=CC(=O)CC[C@]4(C)[C@H]3CC[C@]12C.Cl [Compound 8, (8S,9S,10R,13S,14S,17S)-10,13-Dimethyl-17-((E)-1-((S)-pyrrolidine-2-carbonyloxyimino)ethyl)-6,7,8,9,10,11,12,13,14,15,16,17-dodecahydro-1H-cyclopenta[a]phenanthren-3(2H)-one Hydrochloride]
solubility at 90 min ([1]; pH 4, aqueous buffer): 395 µM | solubility at 90 min ([1]; pH 7, aqueous buffer): 34 µM | inhibition at 5 µM [3]: 21% | dose at maximum efficacy [3]: 10 µM | Emax [3]: 33%

C/C(=N\OC(=O)C1CCN(C)CC1)[C@H]1CC[C@H]2[C@@H]3CCC4=CC(=O)CC[C@]4(C)[C@H]3CC[C@]12C [Compound 19, (8S,9S,10R,13S,14S,17S)-10,13-Dimethyl-17-((E)-1-(1-methylpiperidine-4-carbonyloxyimino)ethyl)-6,7,8,9,10,11,12,13,14,15,16,17-dodecahydro-1H-cyclopenta[a]phenanthren-3(2H)-one]
solubility at 90 min ([1]; pH 4, aqueous buffer): > 660 µM | solubility at 90 min ([1]; pH 7, aqueous buffer): 108 µM (≈ 49.1 µg/mL)

C/C(=N\OC(=O)c1ccc(CN)cc1)[C@H]1CC[C@H]2[C@@H]3CCC4=CC(=O)CC[C@]4(C)[C@H]3CC[C@]12C.Cl [Compound 16, (8S,9S,10R,13S,14S,17S)-17-((E)-1-(4-(aminomethyl)benzoyloxyimino)ethyl)-10,13-dimethyl-6,7,8,9,10,11,12,13,14,15,16,17-dodecahydro-1H-cyclopenta[a]phenanthren-3 (2H)-one]
solubility at 90 min ([1]; pH 4, aqueous buffer): < 30 µM | solubility at 90 min ([1]; pH 7, aqueous buffer): < 30 µM

C/C(=N\OC(=O)[C@H]1CCCNC1)[C@H]1CC[C@H]2[C@@H]3CCC4=CC(=O)CC[C@]4(C)[C@H]3CC[C@]12C.Cl [Compound 22, (8S,9S,10R,13S,14S,17S)-10,13-Dimethyl-17-((E)-1-((S)-piperidine-3-carbonyloxyimino)ethyl)-6,7,8,9,10,11,12,13,14,15,16,17-dodecahydro-1H-cyclopenta[a]phenanthren-3(2H)-one hydrochloride]
solubility at 90 min ([1]; pH 4, aqueous buffer): 314 µM | solubility at 90 min ([1]; pH 7, aqueous buffer): 314 µM
